Where two headings read alike, the source gives them in different places.
Legend:
[1] = tested on: plasma protein; conditions: ref DrugBank [7], cited from earlier work
[2] = source not stated, cited from earlier work
[3] = target: T1, human serum albumin (HSA) (Homo sapiens, UniProt P02768); conditions: for log k HSA: Table S5, HSA
Experimental: (§1) High performance liquid chromatography was performed using immobilized human serum albumin column (HPLCHSA) and immobilized artificial membrane (HPLCIAM). HPLC was the source of the log k values (logarithm of retention factor), log kHSA and log kIAM.
(§2) High performance liquid chromatography was performed using a chromatography column with immobilized human serum albumin. The assay was performed on a Perkin Elmer Series 200 instrument connected to a UV-VIS spectrometer as detector. The analytical wavelength was the same for all compounds at 210 nm. […] The acetate buffer was prepared by dissolving 0.77 g of ammonium acetate in 1 L of distilled water. The pH was then adjusted with a concentrated ammonia solution using a pH meter.
(§3) The phase flow through the system was set to 0.9 mL/min as recommended by the column manufacturer. The solutions were delivered to the column using an autosampler syringe, the injection size was 10 µL. Since the column could not be thermostated, the room was kept at a constant temperature of 25 degrees Celsius.
(§4) Chromatographic data (retention coefficient, k, and derivative, log k) were obtained with TotalChrom software connected to an HPLC instrument. […] The experiment was then repeated and the collected retention rates were the mean values of both series.

[4] = RP TLC on non-impregnated control plates; format: physicochemical; conditions: for CRP (Rf, control RP plate): Table S4, non-impregnated RP plate, acetonitrile/acetate buffer pH 7.4/methanol 60:20:20
[5] = NP TLC on non-impregnated control plates; format: physicochemical; conditions: for CNP (Rf, control NP plate): Table S3, non-impregnated NP plate, acetonitrile/acetate buffer pH 7.4/methanol 60:20:20
[6] = cited from earlier work
[7] = ref DrugBank [7], cited from earlier work
[8] = HPLC on immobilized artificial membrane column (HPLCIAM); format: physicochemical; conditions: for log k IAM: Table S5, IAM column, pH 7.4; for k IAM: Table S5, retention factor, IAM column, phosphate buffer pH 7.4/acetonitrile 80:20
Experimental: as §1
The second experiment was performed using an immobilized artificial membrane (IAM) column. The assay was also performed on a Perkin Elmer Series 200 instrument connected to a UV-VIS spectrometer as the detector. The analytical wavelength was the same for all compounds, at 210 nm. […] The mobile phase was a mixture of 10 mM phosphate buffer pH 7.4 and acetonitrile in the ratio 80:20 (v/v). The phosphate buffer was obtained by dissolving the finished tablet in the appropriate amount of distilled water (1 tablet per 200 mL). In this case, it was not necessary to adjust the pH of the buffer using a pH meter.
The phase flow through the system was set to 0.5 mL/min as recommended by the column manufacturer. The solutions were delivered to the column using an autosampler syringe, the injection size was 10 µL.
The experiment was then repeated and the collected retention rates were the mean values of both series.

[9] = target: T2, bovine serum albumin (BSA) (Bos taurus, UniProt P02769); test: NP TLC on plates impregnated with bovine serum albumin; format: binding; conditions: for NP (Rf, BSA-impregnated NP plate): Table S3, NP plate impregnated with 2 mg/mL BSA, pH 7.4 mobile phase
T2 construct: purchased Sigma Aldrich
T2 sequence (P02769 25-607): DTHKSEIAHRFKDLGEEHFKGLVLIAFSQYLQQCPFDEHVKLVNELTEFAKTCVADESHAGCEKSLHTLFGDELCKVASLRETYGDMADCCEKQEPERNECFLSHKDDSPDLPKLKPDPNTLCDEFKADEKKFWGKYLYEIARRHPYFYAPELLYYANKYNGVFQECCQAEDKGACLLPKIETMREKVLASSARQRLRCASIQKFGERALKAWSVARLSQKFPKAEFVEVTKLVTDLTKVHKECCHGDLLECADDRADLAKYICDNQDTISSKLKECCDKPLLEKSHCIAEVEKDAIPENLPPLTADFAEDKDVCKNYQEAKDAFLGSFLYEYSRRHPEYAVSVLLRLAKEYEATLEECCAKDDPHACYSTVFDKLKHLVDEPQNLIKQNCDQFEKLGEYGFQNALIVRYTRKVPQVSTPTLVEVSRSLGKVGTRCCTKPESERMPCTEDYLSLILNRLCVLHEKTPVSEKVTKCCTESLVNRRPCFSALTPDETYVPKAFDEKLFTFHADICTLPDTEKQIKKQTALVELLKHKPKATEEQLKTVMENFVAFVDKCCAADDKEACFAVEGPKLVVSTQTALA
Text: Chromatographic descriptors were obtained in experiments, thin layer chromatography in normal (NP TLC) and reversed mode (RP TLC). The stationary phase was modified with bovine serum albumin (BSA). TLC was the source of retention factor (Rf) values, denoted in statistical models as NP and RP.
For TLC chromatography, glass plates 20 × 20 cm from Merck, covered with silica gel with the addition of a fluorescent indicator, were used. Normal phase (NP) plates were used with standard Merck TLC Silica gel 60 F254 plates, while in reverse phase (RP) silanized plates RP-2: Merck TLC Silica gel 60 RP-2 F254 were used.
The stationary phase of the plates, both NP and RP, was modified with an aqueous solution of bovine serum albumin purchased from Sigma Aldrich (bovine serum albumin, lyophilized powder).
The impregnation of the plates was carried out with a 2 mg/mL solution applied to the surface using a Desaga SG 1 hand sprayer; the plates were then air dried. […] Normal and reversed phase thin layer chromatography (NP TLC and RP TLC respectively) was performed using silica-gel-coated glass plates. Half of them were covered with 2 mg/mL bovine serum albumin solution and half remained pure.
The mobility of the compounds was also determined on the plates with no protein as a modifier. […] The acetate buffer (20 mM) was prepared by dissolving 1.54 g of ammonium acetate in 1 L of distilled water. The pH was then adjusted with a concentrated ammonia solution using a pH meter. The plates were developed in standard, vertical chromatographic chambers, each time using 100 mL of the mobile phase, after the chamber was previously saturated with solvent vapors for approximately 1 h.
The unfolded-protein-impregnated plates and the control plates were scanned with a Desaga CD 60 densitometer. The values of the delay factor (Rf) were collected, i.e., the ratio of the distance traveled by the substance to be analyzed to the distance traveled through the front of the mobile phase. […] The experiment was repeated (for both BSA-coated and control plates) and the Rf values pooled are the mean of both series of experiments.

[10] = target: T2, bovine serum albumin (BSA); test: RP TLC on plates impregnated with bovine serum albumin; format: binding; conditions: for RP (Rf, BSA-impregnated RP plate): Table S4, RP plate impregnated with 2 mg/mL BSA, pH 7.4 mobile phase
[11] = target: T1, human serum albumin (HSA); test: in vitro; conditions: immobilized hsa column, pH 7.4
Experimental: as §1, §2, §3, §4

[12] = Milk-to-plasma (M/P) drug concentration ratio obtained in vivo, from literature; set-up: species or system human; conditions: Table S1, scale of drug penetration into milk 1-4
[13] = Table S1, plasma protein binding given as fraction
[14] = Table S5, retention factor, HSA column, pH 7.4, 25 degrees Celsius
[15] = Table S1, milk/plasma drug concentration ratio, in vivo

T1 sequence (P02768 25-609): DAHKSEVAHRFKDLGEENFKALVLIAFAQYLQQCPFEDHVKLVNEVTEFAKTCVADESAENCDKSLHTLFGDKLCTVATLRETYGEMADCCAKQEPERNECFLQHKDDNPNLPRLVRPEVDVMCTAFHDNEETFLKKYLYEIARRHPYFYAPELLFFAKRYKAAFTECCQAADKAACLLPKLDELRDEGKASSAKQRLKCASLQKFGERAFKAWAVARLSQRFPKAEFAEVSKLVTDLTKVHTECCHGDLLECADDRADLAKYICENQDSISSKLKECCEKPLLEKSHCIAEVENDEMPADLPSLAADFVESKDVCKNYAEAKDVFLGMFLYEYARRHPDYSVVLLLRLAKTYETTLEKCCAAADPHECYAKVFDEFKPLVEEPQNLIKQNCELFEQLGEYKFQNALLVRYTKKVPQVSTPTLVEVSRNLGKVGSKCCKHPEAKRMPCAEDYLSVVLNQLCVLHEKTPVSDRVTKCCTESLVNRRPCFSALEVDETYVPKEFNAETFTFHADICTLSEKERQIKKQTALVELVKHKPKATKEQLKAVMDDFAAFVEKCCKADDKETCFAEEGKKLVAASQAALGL

Row | Structure (SMILES) | chromatographic logD [11] | PB [1, 13] | BB vivo ([2]; Table S1) | k HSA [3, 14] | CRP (Rf, control RP plate) [4] | CNP (Rf, control NP plate) [5] | M/P code [12] | M/P [6, 15] | CNS+/- ([7]; Table S1, coded 1/0) | log k IAM [8] | k IAM [8] | NP (Rf, BSA-impregnated NP plate) [9] | RP (Rf, BSA-impregnated RP plate) [10] | further results
1 | CN(C)CCC=C1c2ccccc2CCc2ccccc21 [amitriptyline] | 0.77 | – | – | – | – | – | – | – | – | – | – | – | – | PB ([1]; Table S6, external group (n = 38), given as fraction): 0.95; BB vivo ([2]; Table S6, external group): 0.89; kHSA ([3]; Table S9, external group): 5.87; CRP (Rf value from the non-impregnated RP plate, control) ([4]; Table S8, external group): 0.67; CNP (Rf value from the non-impregnated NP plate, control) ([5]; Table S8, external group): 0.32; M/P ([6]; Table S6, external group (n = 38)): 0.92; CNS+/- ([7]; Table S6, external group, coded 1/0): 1; log kIAM ([8]; Table S9, external group): 0.19; NP (Rf value from the NP plate impregnated with 2 mg/mL BSA solution) ([9]; Table S8, external group): 0.31; RP (Rf value from the RP plate impregnated with 2 mg/mL BSA solution) ([10]; Table S8, external group): 0.63
2 | NC(=O)N1c2ccccc2C=Cc2ccccc21 [carbamazepine] | – | 0.76 | -0.070 | 1.09 | 0.83 | 0.95 | 2 (2 corresponds to the range of 0.40–0.80—at the safety limit) | 0.558 | 1 | 0.18 | 1.50 | 0.95 | 0.84 | log k HSA ([3]; pH 7.4): 0.04
3 | CN/C(=N/CCSCc1nc[nH]c1C)NC#N [cimetidine] | -0.17 | 0.17 | -1.420 | 0.67 | 0.88 | 0.64 | 4 (4 is M/P >1.20—dangerous) | 1.7 | 0 | -0.58 | 0.26 | 0.67 | 0.87 | –
4 | CN1C(=O)CC(=O)N(c2ccccc2)c2cc(Cl)ccc21 [clobazam] | 0 | 0.85 | 0.350 | – | 0.79 | 0.95 | 1 (Code 1 corresponds to drugs with an M/P value <0.40—completely safe) | 0.25 | 1 | 0.41 | 2.58 | 0.95 | 0.80 | k HSA ([3]; pH 7.4): 1.01
5 | Clc1cccc(Cl)c1N=C1NCCN1 [clonidine] | 0.13 | 0.3 | 0.150 | 1.35 | 0.73 | 0.49 | 4 (4 is M/P >1.20—dangerous) | 2 | 1 | 0.45 | 2.83 | 0.50 | 0.68 | –
6 | OCCOCCN1CCN(C(c2ccccc2)c2ccc(Cl)cc2)CC1 (stereo not shown) [hydroxyzine] | 0.57 | 0.93 | 0.285 | 3.69 | – | 0.55 | – | – | 1 | 1.14 | 13.82 | 0.55 | – | –
7 | CN1CCN2c3ccccc3Cc3ccccc3C2C1 (stereo not shown) [mianserin] | 0.81 | 0.9 | 0.990 | 6.39 | 0.55 | 0.54 | 4 (4 is M/P >1.20—dangerous) | 2.2 | 1 | 1.34 | 21.72 | 0.55 | 0.55 | –
8 | Cc1ncc2n1-c1ccc(Cl)cc1C(c1ccccc1F)=NC2 [midazolam] | 0.51 | 0.97 | 0.398 | – | 0.66 | 0.82 | 2 (2 corresponds to the range of 0.40–0.80—at the safety limit) | 0.785 | 1 | 0.76 | 5.69 | 0.83 | 0.66 | k HSA ([3]; pH 7.4): 3.22
9 | CN1CCN2c3ncccc3Cc3ccccc3C2C1 (stereo not shown) [mirtazapine] | 0.47 | – | 0.530 | 2.96 | 0.58 | 0.39 | 3 (3 range 0.81–1.20—possibly over the safety limit) | 1.1 | 1 | 0.77 | 5.83 | 0.39 | 0.58 | –
10 | CC(=O)Nc1ccc(O)cc1 [paracetamol] | – | 0.25 | -0.463 | 0.28 | 0.92 | 0.93 | 3 (3 range 0.81–1.20—possibly over the safety limit) | 0.84 | 1 | -0.49 | 0.32 | 0.94 | 0.92 | log k HSA ([3]; pH 7.4): -0.55
11 | O=C1NC(=O)C(c2ccccc2)(c2ccccc2)N1 [phenytoin] | 0.21 | 0.9 | -0.096 | 1.63 | 0.87 | 0.97 | 1 (Code 1 corresponds to drugs with an M/P value <0.40—completely safe) | 0.29 | 1 | 0.25 | 1.78 | 0.97 | 0.86 | –
